Assay results from patent publication US20240180880A1, “METHODS OF USING EHMT2 INHIBITORS IN TREATING OR PREVENTING BLOOD DISORDERS” (Epizyme, Inc., priority 2017, published 2024).

Test system: Human CD34+ progenitor cells
Experiment: Cell viability in the human CD34+ progenitors HbF induction assay
Format: cell-based
From the text: An in-vitro system to test the ability of compound to induce fetal hemoglobin expression was developed. This system used Human CD34+ progenitor cells freshly isolated from healthy donors blood collections. Peripheral blood mononuclear cells (PBMCs) were isolated from whole blood by density gradient centrifugation using SepMatem-50 and Lymphoprep™ from Stem Cell Technologies. CD34^+ hematopoietic progenitor cells (HSPCs) were isolated from PBMCs by magnetic separation using Stem Cells Technologies CD34+ positive selection/isolation kit (Stem Cell Technologies, #18056). CD34 cells were cultured using a 2-phase 14 day culture system. During phase 1 (day 0 to day 7) cells were expanded. […] At day 14 cells were harvested for Fluorescent Activated Cell Sorting (FACS) analysis and for HbF quantitation by Mass spectrometry. […] Data was analyzed using FlowJo software. % HbF^+ cells and ratios H3/H3K9me2 intensities were calculated for CD71^+/CD235a^+ gated populations.
A list of pharmacological agents was evaluated for their potential to induce fetal Hemoglobin (HbF) in order to identify combination partners for our EHMT1/2 inhibitors. HbF can be induced by toxicity; therefore, the potential of the agents to induce HbF were evaluated in the context of cell viability. […] The EHMT1/2 inhibitor Compound 205 was evaluated in combination with a fixed dose of 10 μM Hydroxyurea and 0.1 μM Pomalidomide. […]

Question: Which results are given for CNc1cc(C)nc(Nc2ccc(OC)c(OCCCN3CCCC3)c2)n1 [Compound 205]?
Answer: cell viability (0.016 μM compound 205 in combination with 0.1 μM Pomalidomide): > 90%; cell viability (0.016 μM compound 205 in combination with 10 μM Hydroxyurea): > 90%
